Experimental data published in PubChem BioAssay AID1259407 (Chemical Carcinogenesis Research Information System (CCRIS), 2018).
Activity calls are given as the source filed them. The rule behind the calls is not given here.

Tested on: CCRIS mutagenicity, Ames/micronucleus/aberration tests
Experiment: CCRIS mutagenicity studies
[1] = Test System: AMES SALMONELLA TYPHIMURIUM, Strain/Indicator: TA98, Metabolic Activation: NONE, Method: STANDARD PLATE
[2] = Test System: AMES SALMONELLA TYPHIMURIUM, Strain/Indicator: TA98, Metabolic Activation: RAT, LIVER, S-9, AROCLOR 1254, Method: STANDARD PLATE
[3] = Test System: AMES SALMONELLA TYPHIMURIUM, Strain/Indicator: TA100, Metabolic Activation: NONE, Method: STANDARD PLATE
[4] = Test System: AMES SALMONELLA TYPHIMURIUM, Strain/Indicator: TA100, Metabolic Activation: RAT, LIVER, S-9, AROCLOR 1254, Method: STANDARD PLATE
[5] = Test System: AMES SALMONELLA TYPHIMURIUM, Strain/Indicator: TA1535, Metabolic Activation: NONE, Method: STANDARD PLATE
[6] = Test System: AMES SALMONELLA TYPHIMURIUM, Strain/Indicator: TA1535, Metabolic Activation: RAT, LIVER, S-9, AROCLOR 1254, Method: STANDARD PLATE
[7] = Test System: AMES SALMONELLA TYPHIMURIUM, Strain/Indicator: TA1537, Metabolic Activation: NONE, Method: STANDARD PLATE
[8] = Test System: AMES SALMONELLA TYPHIMURIUM, Strain/Indicator: TA1537, Metabolic Activation: RAT, LIVER, S-9, AROCLOR 1254, Method: STANDARD PLATE
[9] = Test System: AMES SALMONELLA TYPHIMURIUM, Strain/Indicator: TA1538, Metabolic Activation: RAT, LIVER, S-9, AROCLOR 1254, Method: STANDARD PLATE
[10] = Test System: AMES SALMONELLA TYPHIMURIUM, Strain/Indicator: TA100, Metabolic Activation: NONE, Method: PREINCUBATION

O=S(O)S(=O)(=O)O
mutagenic call (End Point: In vitro chromosomal aberration, Test System: Human lymphocytes, Metabolic Activation: None): active; positive (structural changes) | mutagenic call (End Point: In vitro micronucleus, Test System: Human lymphocytes, Metabolic Activation: None): active; positive | mutagenic call (End Point: In vivo micronucleus, Test System: Bone marrow cells, Species: Rat, Strain/Sex: Rattus norvegicus var. albino / Male, female, Route: Intraperitoneal): active; positive (structural changes) | mutagenic call (Test System: AMES SALMONELLA TYPHIMURIUM, Strain/Indicator: TA97, Metabolic Activation: NONE, Method: PREINCUBATION): inactive; negative | mutagenic call (Test System: AMES SALMONELLA TYPHIMURIUM, Strain/Indicator: TA97, Metabolic Activation: RAT, LIVER, S-9, AROCLOR 1254, Method: PREINCUBATION): inactive; negative | mutagenic call [1]: inactive; negative | mutagenic call [2]: inactive; negative | mutagenic call [3]: inactive; negative | mutagenic call [4]: inactive; negative | mutagenic call (Test System: AMES SALMONELLA TYPHIMURIUM, Strain/Indicator: TA102, Metabolic Activation: NONE, Method: PREINCUBATION): inactive; negative | mutagenic call (Test System: AMES SALMONELLA TYPHIMURIUM, Strain/Indicator: TA102, Metabolic Activation: RAT, LIVER, S-9, AROCLOR 1254, Method: PREINCUBATION): inactive; negative | mutagenic call [5]: inactive; negative | mutagenic call [6]: inactive; negative | mutagenic call [7]: inactive; negative | mutagenic call [8]: inactive; negative | mutagenic call (Test System: AMES SALMONELLA TYPHIMURIUM, Strain/Indicator: TA1538, Metabolic Activation: NONE, Method: STANDARD PLATE): inactive; negative | mutagenic call [9]: inactive; negative | mutagenic call (Test System: E. COLI, Strain/Indicator: WP2, Metabolic Activation: NONE, Method: STANDARD PLATE): inactive; negative | mutagenic call (Test System: E. COLI, Strain/Indicator: WP2, Metabolic Activation: RAT, LIVER, S-9, AROCLOR 1254, Method: STANDARD PLATE): inactive; negative

Nc1nc2c(ccc3ncccc32)s1
mutagenic call [9]: active; positive

CCc1c2ccccc2c(C)c2c1ccc1ccccc12
mutagenic call (Test System: AMES SALMONELLA TYPHIMURIUM, Strain/Indicator: TA98, Method: STANDARD PLATE): inactive; negative | mutagenic call (Test System: AMES SALMONELLA TYPHIMURIUM, Strain/Indicator: TA100, Metabolic Activation: RAT, LIVER, S-9, PHENOBARBITAL, Method: STANDARD PLATE): inactive; negative | mutagenic call (Test System: AMES SALMONELLA TYPHIMURIUM, Strain/Indicator: TA100, Method: STANDARD PLATE): inactive; negative

Oc1cc(Cl)ccc1Cl
mutagenic call (Test System: AMES SALMONELLA TYPHIMURIUM, Strain/Indicator: TA98, Metabolic Activation: HAMSTER, LIVER, S-9, AROCLOR 1254, Method: PREINCUBATION): inactive; negative | mutagenic call (Test System: AMES SALMONELLA TYPHIMURIUM, Strain/Indicator: TA98, Metabolic Activation: NONE, Method: PREINCUBATION): inactive; negative | mutagenic call (Test System: AMES SALMONELLA TYPHIMURIUM, Strain/Indicator: TA98, Metabolic Activation: RAT, LIVER, S-9, AROCLOR 1254, Method: PREINCUBATION): inactive; negative | mutagenic call (Test System: AMES SALMONELLA TYPHIMURIUM, Strain/Indicator: TA100, Metabolic Activation: HAMSTER, LIVER, S-9, AROCLOR 1254, Method: PREINCUBATION): inactive; negative | mutagenic call [10]: inactive; negative | mutagenic call (Test System: AMES SALMONELLA TYPHIMURIUM, Strain/Indicator: TA100, Metabolic Activation: RAT, LIVER, S-9, AROCLOR 1254, Method: PREINCUBATION): inactive; negative | mutagenic call (Test System: AMES SALMONELLA TYPHIMURIUM, Strain/Indicator: TA1535, Metabolic Activation: HAMSTER, LIVER, S-9, AROCLOR 1254, Method: PREINCUBATION): inactive; negative | mutagenic call (Test System: AMES SALMONELLA TYPHIMURIUM, Strain/Indicator: TA1535, Metabolic Activation: NONE, Method: PREINCUBATION): inactive; negative | mutagenic call (Test System: AMES SALMONELLA TYPHIMURIUM, Strain/Indicator: TA1535, Metabolic Activation: RAT, LIVER, S-9, AROCLOR 1254, Method: PREINCUBATION): inactive; negative | mutagenic call (Test System: AMES SALMONELLA TYPHIMURIUM, Strain/Indicator: TA1537, Metabolic Activation: HAMSTER, LIVER, S-9, AROCLOR 1254, Method: PREINCUBATION): inactive; negative | mutagenic call (Test System: AMES SALMONELLA TYPHIMURIUM, Strain/Indicator: TA1537, Metabolic Activation: NONE, Method: PREINCUBATION): inactive; negative | mutagenic call (Test System: AMES SALMONELLA TYPHIMURIUM, Strain/Indicator: TA1537, Metabolic Activation: RAT, LIVER, S-9, AROCLOR 1254, Method: PREINCUBATION): inactive; negative | mutagenic call (Test System: CHINESE HAMSTER OVARY CELLS, Strain/Indicator: CHO-K1-BH4 (HPRT)/6-THIOGUANINE, Metabolic Activation: NONE, Method: PREINCUBATION): inactive; negative | mutagenic call (Test System: CHINESE HAMSTER OVARY CELLS, Strain/Indicator: CHO-K1-BH4 (HPRT)/6-THIOGUANINE, Metabolic Activation: S-9, Method: PREINCUBATION): inactive; negative

CC(C)CCCC(C)CCCC(C)CCCCC(C)CCCC(C)CCCC(C)C (centres undefined)
mutagenic call (Test System: Ames Salmonella typhimurium, Strain/Indicator: TA98, Metabolic Activation: None, Method: Preincubation): inactive; negative | mutagenic call (Test System: Ames Salmonella typhimurium, Strain/Indicator: TA98, Metabolic Activation: Rat, Liver, S9, Phenobarbital and 5,6-benzoflavone, Method: Preincubation): inactive; negative | mutagenic call (Test System: Ames Salmonella typhimurium, Strain/Indicator: TA100, Metabolic Activation: None, Method: Preincubation): inactive; negative | mutagenic call (Test System: Ames Salmonella typhimurium, Strain/Indicator: TA100, Metabolic Activation: Rat, Liver, S9, Phenobarbital and 5,6-benzoflavone, Method: Preincubation): inactive; negative | mutagenic call (Test System: Ames Salmonella typhimurium, Strain/Indicator: TA1535, Metabolic Activation: None, Method: Preincubation): inactive; negative | mutagenic call (Test System: Ames Salmonella typhimurium, Strain/Indicator: TA1535, Metabolic Activation: Rat, Liver, S9, Phenobarbital and 5,6-benzoflavone, Method: Preincubation): inactive; negative | mutagenic call (Test System: Ames Salmonella typhimurium, Strain/Indicator: TA1537, Metabolic Activation: None, Method: Preincubation): inactive; negative | mutagenic call (Test System: Ames Salmonella typhimurium, Strain/Indicator: TA1537, Metabolic Activation: Rat, Liver, S9, Phenobarbital and 5,6-benzoflavone, Method: Preincubation): inactive; negative | mutagenic call (Test System: E. coli, Strain/Indicator: WP2uvrA/pKM101, Metabolic Activation: None, Method: Preincubation): inactive; negative | mutagenic call (Test System: E. coli, Strain/Indicator: WP2uvrA/pKM101, Metabolic Activation: Rat, Liver, S9, Phenobarbital and 5,6-benzoflavone, Method: Preincubation): inactive; negative

O=[N+]([O-])c1ccc2c(c1)CCc1ccccc1-2
mutagenic call (Test System: AMES SALMONELLA TYPHIMURIUM, Strain/Indicator: TA98(1,8-DNP6), Metabolic Activation: NONE, Method: STANDARD PLATE): active; positive | mutagenic call (Test System: AMES SALMONELLA TYPHIMURIUM, Strain/Indicator: TA98(NR), Metabolic Activation: NONE, Method: STANDARD PLATE): active; positive | mutagenic call [1]: active; positive

CC(=O)Nc1ccc(-c2ccc(NO)cc2)cc1
mutagenic call (Test System: CHINESE HAMSTER OVARY, Strain/Indicator: CHO-K1-BH4 (HGPRT), Metabolic Activation: NONE, Method: SUSPENSION): active; positive

CCN(CC)c1ccc(N=Nc2ccc([N+](=O)[O-])cc2)cc1
mutagenic call [1]: inactive; negative | mutagenic call [2]: active; positive | mutagenic call [3]: inactive; negative | mutagenic call [4]: inactive; negative | mutagenic call [5]: inactive; negative | mutagenic call [6]: inactive; negative | mutagenic call [7]: inactive; negative | mutagenic call [8]: inactive; negative | mutagenic call (Test System: CHINESE HAMSTER V-79, Strain/Indicator: V-79 (HGPRT)/6-THIOGUANINE, Metabolic Activation: NONE): inactive; negative | mutagenic call (Test System: CHINESE HAMSTER V-79, Strain/Indicator: V-79 (HGPRT)/6-THIOGUANINE, Metabolic Activation: RAT, LIVER, S-9, KANECLOR 400): inactive; negative | mutagenic call (Test System: UDS RAT HEPATOCYTES, Strain/Indicator: THY INCORP, Metabolic Activation: NONE, Method: AUTORADIOGRAPHY): inactive; negative

Cc1cc2ccccc2c2ccc3c(c12)[C@@H]1O[C@@H]1[C@H](O)[C@H]3O
mutagenic call [10]: active; positive | mutagenic call [3]: active; positive
